Measurements reported in PubChem BioAssay AID488890 (Southern Research Specialized Biocontainment Screening …, 2010).
Records with an inconclusive call do not appear. Activity calls are given as the source filed them. The rule behind the calls is not given here.

Each compound was assayed on Mycobacterium tuberculosis non-replicating, growth inhibition (assay: growth inhibition of non-replicating M. tuberculosis (AID 488890)).

| SMILES | IC50 |
| --- | --- |
| CCOC(=O)c1ccc(N=C(CC)c2c(O)n(C)c(=O)n(C)c2=O)cc1 | 8.28 µM |
| O=C(CCSc1ccccn1)c1ccccc1 | 9.72 µM |
| CCCn1nnnc1NC(=O)c1ccc2ccccc2c1 | 3.46 µM |
| COc1ccc(COC(=O)CCNC(=O)c2ccc(Cl)cc2)cc1 | 8.25 µM |
| Cc1cccc(CSc2nnc(-c3ccco3)o2)c1 | 0.67 µM |
| N#Cc1ccsc1NC(=O)c1ccc(Cl)c([N+](=O)[O-])c1 | 4.4 µM |
| O=C1NC(=O)N(Cc2ccco2)C(=O)/C1=C\c1cccn1CCOc1ccc(Cl)cc1 | 7.42 µM |
| Cc1cc2n(n1)SC(Nc1ccccc1)N2 (configuration not stated) | 26.7 µM (inactive) |
| CC(C)c1ccc(N2C(=O)CC(Sc3ncn[nH]3)C2=O)cc1 (configuration not stated) | 11.2 µM (inactive) |
| O=C(Nc1nnc(-c2ccco2)o1)c1cccc2ccccc12 | 19.1 µM (inactive) |
| O=C(COc1ccc(F)cc1)Nc1ccc2c(c1)OCCO2 | 6.38 µM |
| O=C(N/N=C/c1ccccn1)c1cccc([N+](=O)[O-])c1 | 3.91 µM |
| COc1ccc(OC)c(NC(=O)C(=O)NNC(=O)C23CC4CC(CC(C4)C2)C3)c1 | 5.4 µM |
| Cc1cccnc1NC(=O)C1COc2ccccc2O1 (configuration not stated) | 29.6 µM (inactive) |
| O=C(COC(=O)c1ccc(Cl)s1)c1ccc[nH]1 | 6.38 µM |
| CCCCN(C/C=C/c1ccccc1OC)Cc1ccccc1 | 8.78 µM |
| N=c1oc2ccccc2cc1C(=O)Nc1ccccc1 | 33 µM (inactive) |
| CCOC(=O)C1=C(c2ccccc2)NC(N)=NC1c1ccc(OCc2ccc(Cl)cc2)c(OC)c1 (configuration not stated) | 4.25 µM |
| Oc1ccccc1-c1nnc(COc2ccccc2)o1 | 11.2 µM (inactive) |

| SMILES | IC50 |
| --- | --- |
| O=[N+]([O-])c1cc2oc3c(c2c(C=NCc2ccccc2)c1O)CCCC3 | 2.89 µM |
| COc1ccc(C(=O)NCC(=O)N/N=C/c2ccc([N+](=O)[O-])o2)cc1OC | 4.97 µM |
| CCCCCCCC(=O)N/N=C(\C)c1ccc(O)cc1O | 1.57 µM |
| O=C(Nc1nccs1)c1ccc2ccccc2c1 | 13.8 µM (inactive) |
| CCOc1cccc2cc(C(=O)Nc3nccs3)c(=O)oc12 | 2.26 µM |
| CC(NC(=O)c1cc([N+](=O)[O-])cc([N+](=O)[O-])c1)c1ccc(-n2ccnc2)cc1 (configuration not stated) | 5.42 µM |
| Cc1nc([N+](=O)[O-])c(Br)n1Cc1ccccc1 | 14.1 µM (inactive) |
| Cc1cc(N2CCC(C)CC2)nc(NCc2ccccc2)n1 | 16.4 µM (inactive) |
| O=C(Nc1ccc(S(=O)(=O)N2CCOCC2)cc1)c1ccc([N+](=O)[O-])s1 | 1.59 µM |
| O=C1N/C(=N\c2ccccn2)SC1Cc1ccc(Cl)cc1 (configuration not stated) | 3.91 µM |
| Cc1cccc(NC(=O)COC(=O)CCc2c[nH]c3ccccc23)c1C | 6.12 µM |
| CCOC(=O)Cc1c(C)nc2c(-c3cccc(Br)c3)c[nH]n2c1=O | 4.13 µM |
| O=C(Nc1ccc(Cl)c(Cl)c1)O/N=C/c1ccncc1 | 15.5 µM (inactive) |
| O=C(COC(=O)CC1CCCC1)Nc1ccc(OC(F)F)cc1 | 10.8 µM (inactive) |
| CCC(=O)Nc1ccc(C(=O)NNC(=O)c2cc([N+](=O)[O-])cc([N+](=O)[O-])c2)cc1 | 12.9 µM (inactive) |
| Cc1ncsc1CCOC(=O)c1ccc([N+](=O)[O-])cc1 | 10.4 µM (inactive) |
| COc1ccc(NC(=O)C(=O)NNC(=O)C(C)Oc2ccc(Cl)cc2Cl)cc1 (configuration not stated) | 1.53 µM |
| COc1cccc(OCCNC(=O)c2cc([N+](=O)[O-])cc([N+](=O)[O-])c2)c1 | 0.49 µM |
| CC(C)c1nnc(NC(=O)c2cc3cc(Br)ccc3oc2=O)s1 | 4.33 µM |

| SMILES | IC50 |
| --- | --- |
| Cc1[nH]n2c(=O)c3c(nc2c1-c1ccccc1)CCCC3 | 13.6 µM (inactive) |
| CSc1ccc(C(=O)C2CCCN(Cc3cc4ccccc4[nH]3)C2)cc1 (configuration not stated) | 11.1 µM (inactive) |
| O=C(Cc1cccs1)N/N=C\c1ccc([N+](=O)[O-])s1 | 11.6 µM (inactive) |
| O=C(Nc1nnc(-c2ccc3c(c2)CCCC3)o1)c1c(F)cccc1F | 3.12 µM |
| O=C(c1cc2ccccc2o1)c1nc2c(n1O)CCCCC2 | 12.8 µM (inactive) |
| CCCNC(=O)NC(=O)COc1ccc(-c2ccc(C#N)cc2)cc1 | 2.54 µM |
| COc1cc2ccccc2cc1C(=O)Nc1sc2c(c1C(N)=O)CCN(C(C)C)C2 | 19 µM (inactive) |
| COc1ccc(Cl)cc1N=Cc1c(O)c2ccccc2oc1=O | 44.3 µM (inactive) |
| Cn1nnnc1Sc1ncnc2scc(-c3ccc[nH]3)c12 | 8.43 µM |
| O=C(OCC#CCSc1nc2ccccc2o1)c1ccco1 | 5.75 µM |
| O=C(NCc1ccc2c(c1)OCO2)c1ccc(Cl)s1 | 1.73 µM |
| O=C(CCC1CCCC1)c1c(O)c2ccccc2oc1=O | 1.93 µM |
| CCOc1ccc(C(=O)C(CN2CCOCC2)c2ccccc2)cc1 (configuration not stated) | 3.62 µM |
| Cc1ccnc(NC(=O)c2cc3ccccc3o2)c1 | 4.74 µM |
| COc1ccccc1-c1nnc(NC(=O)c2ccc3ncsc3c2)o1 | 22.5 µM (inactive) |
| CC(C)Cc1nnc(NC(=O)CCS(=O)(=O)c2ccc(Cl)cc2)s1 | 5.37 µM |
| CC(/C=C/c1cccc([N+](=O)[O-])c1)=N\NC(=O)c1ccncc1 | 1.2 µM |
| Cn1c(=O)c(Oc2ccc(Cl)cc2)c(O)c2ccccc21 | 11.1 µM (inactive) |
| Cc1cccc(NC(=O)COC(=O)c2cc3ccccc3oc2=O)c1 | 14.2 µM (inactive) |
